The text below walks through data of patent US10793568B2, “Hormone receptor modulators for treating metabolic conditions and disorders” (ARDELYX, INC., priority 2016, dated 2020).

The target in experiment [1] is ligand binding domain of human FXR (Homo sapiens (Human), UniProt Q96RI1). As to the kind of experiment: FXR ligand binding assay (LanthaScreen TR-FRET, SRC2-2 peptide recruitment). The note with it: for pEC50: -log EC50, concentration required to produce 50% activation; for Emax: extent of activation relative to GW4064, read-out: % Efficacy.
Chain of ligand binding domain of human FXR (Q96RI1 262-486): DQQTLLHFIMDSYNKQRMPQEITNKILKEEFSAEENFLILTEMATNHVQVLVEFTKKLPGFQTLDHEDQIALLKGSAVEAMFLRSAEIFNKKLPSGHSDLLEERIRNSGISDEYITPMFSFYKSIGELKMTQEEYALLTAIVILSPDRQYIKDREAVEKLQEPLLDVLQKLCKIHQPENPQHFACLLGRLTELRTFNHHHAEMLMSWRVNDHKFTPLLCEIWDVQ
Experiment [2] deals with human Farnesoid X receptor ligand-binding domain/Gal4 DNA binding domain chimera (Homo sapiens (Human), UniProt Q96RI1). The experiment can be described thus: Cell-based assay of FXR activation (FXR-UAS-bla HEK 293T beta-lactamase reporter). The note with it: cellular FXR beta-lactamase reporter assay; for Emax: HEK-293T, extent of activation relative to GW4064, read-out: % Efficacy; for EC50: FXR-UAS-bla HEK 293T cells, 16 h, pEC50 = -log EC50. The procedure, abridged: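 Readout is cleavage of the CCF4 FRET substrate (409 nm excitation, blue 447 nm signal) by beta-lactamase, expressed under UAS control after a Gal4–human FXR LBD chimera is activated in HEK 293T cells. Compounds were added as 3-fold dilutions for 16 h at 37 °C in 2% charcoal-stripped FBS medium. Curves were fit to a 3-parameter logistic equation to give pEC50, with % activation relative to GW4064.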
Chain of human Farnesoid X receptor ligand-binding domain/Gal4 DNA binding domain chimera (Q96RI1 262-486, change not shown): as the sequence (Q96RI1 262-486) above
Chain of human Farnesoid X receptor ligand-binding domain/Gal4 DNA binding domain chimera (P04386 1-147 partner): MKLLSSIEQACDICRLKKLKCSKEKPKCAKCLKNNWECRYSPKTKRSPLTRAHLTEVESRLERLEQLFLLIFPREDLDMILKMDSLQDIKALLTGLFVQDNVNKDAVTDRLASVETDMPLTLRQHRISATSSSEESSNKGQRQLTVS

Take `O=C(O)c1cc(F)c2nc(N3C[C@@H]4C[C@H]3C[C@H]4OCc3c(C4CCC5(CC4)CC5)noc3C3CC3)sc2c1` [Compound I-277, 2-[(1S,4S,5R)-5-[(5-cyclopropyl-3-{spiro[2.5]octan-6-yl}-1,2-oxazol-4-yl)methoxy]-2-azabicyclo[2.2.1]heptan-2-yl]-4-fluoro-1,3-benzothiazole-6-carboxylic Acid]: in experiment [1], the negative-log EC50 (pEC50) is listed as 8.1 and the Emax is 106%. Besides, in experiment [2], the Emax turned out to be 123% and the EC50 was 0.158 µM.

On to `O=C(O)c1cc(OC2CC2)c2nc(N3C[C@@H]4C[C@H]3C[C@H]4OCc3c(C4CCC5(CC4)CC5)noc3C3CC3)sc2c1` [Compound I-278, 4-cyclopropoxy-2-((1S,4S,5R)-5-((5-cyclopropyl-3-(spiro[2.5]octan-6-yl)isoxazol-4-yl)methoxy)-2-azabicyclo[2.2.1]heptan-2-yl)benzo[d]thiazole-6-carboxylic acid], for which, in experiment [1], the pEC50 was 7.7 and the Emax was 96%. Also, in experiment [2], the Emax was determined as 98% and the half-maximal effective concentration (EC50) was 0.01 µM.

In the case of `O=C(O)c1cc(C2CCOCC2)c2nc(N3C[C@@H]4C[C@H]3C[C@H]4OCc3c(C4CCC5(CC4)CC5)noc3C3CC3)sc2c1` [Compound I-279], in experiment [1], the pEC50 is reported as 7.2 and the Emax stood at 112%. In experiment [2], the Emax was determined as 104% and the 50% effective concentration (EC50) is 0.0398 µM.

Turning to `O=C(O)c1cc([C@H]2CCOC2)c2nc(N3C[C@@H]4C[C@H]3C[C@H]4OCc3c(C4CCC5(CC4)CC5)noc3C3CC3)sc2c1` [Compound I-280, 2-((1S,4S,5R)-5-((5-cyclopropyl-3-(spiro[2.5]octan-6-yl)isoxazol-4-yl)methoxy)-2-azabicyclo[2.2.1]heptan-2-yl)-4-((R)-tetrahydrofuran-3-yl)benzo[d]thiazole-6-carboxylic acid], in experiment [1], the negative-log EC50 (pEC50) was determined as 7.3 and the Emax came out at 115%. In experiment [2], the Emax came to 105% and a half-maximal response (EC50) required 0.0251 µM.

Take `O=C(O)c1cc([C@@H]2CCOC2)c2nc(N3C[C@@H]4C[C@H]3C[C@H]4OCc3c(C4CCC5(CC4)CC5)noc3C3CC3)sc2c1` [Compound I-281, 2-((1S,4S,5R)-5-((5-cyclopropyl-3-(spiro[2.5]octan-6-yl)isoxazol-4-yl)methoxy)-2-azabicyclo[2.2.1]heptan-2-yl)-4-((S)-tetrahydrofuran-3-yl)benzo[d]thiazole-6-carboxylic acid]: in experiment [1], the pEC50 came to 7.4 and the Emax was determined as 104%. Also, in experiment [2], the Emax came to 105% and it took 0.0158 µM to reach a half-maximal effect (EC50).

Take `O=C(O)c1cc(C2CCC2)c2nc(N3C[C@@H]4C[C@H]3C[C@H]4OCc3c(C4CCC5(CC4)CC5)noc3C3CC3)sc2c1` [Compound I-282, 4-cyclobutyl-2-((1S,4S,5R)-5-((5-cyclopropyl-3-(spiro[2.5]octan-6-yl)isoxazol-4-yl)methoxy)-2-azabicyclo[2.2.1]heptan-2-yl)benzo[d]thiazole-6-carboxylic acid]: in experiment [1], the pEC50 was determined as 7.4 and the Emax is 100%. Also, in experiment [2], the Emax is 117% and a half-maximal response (EC50) required 0.0251 µM.

Turning to `O=C(O)c1cc(C2CCCC2)c2nc(N3C[C@@H]4C[C@H]3C[C@H]4OCc3c(C4CCC5(CC4)CC5)noc3C3CC3)sc2c1` [Compound I-283, 4-cyclopentyl-2-((1S,4S,5R)-5-((5-cyclopropyl-3-(spiro[2.5]octan-6-yl)isoxazol-4-yl)methoxy)-2-azabicyclo[2.2.1]heptan-2-yl)benzo[d]thiazole-6-carboxylic acid], in experiment [1], the pEC50 amounted to 7 and the Emax is 114%. Besides, in experiment [2], the Emax is 104% and the EC50 is 0.0251 µM.

In the case of `O=C(O)c1cc(C2CCC2)c2nc(N3C[C@H]4C[C@@H]3C[C@@H]4OCc3c(-c4c(Cl)cccc4Cl)noc3C3CC3)sc2c1` [Compound I-284, 4-cyclobutyl-2-[(1R,4R,5S)-5-{[5-cyclopropyl-3-(2,6-dichlorophenyl)-1,2-oxazol-4-yl]methoxy}-2-azabicyclo[2.2.1]heptan-2-yl]-1,3-benzothiazole-6-carboxylic Acid], in experiment [1], the negative logarithm of the EC50 (pEC50) came to 9 and the Emax was determined as 116%. Also, in experiment [2], the Emax came to 100% and the EC50 was 0.00316 µM.

Consider `O=C(O)c1cc(C2CCCC2)c2nc(N3C[C@H]4C[C@@H]3C[C@@H]4OCc3c(-c4c(Cl)cccc4Cl)noc3C3CC3)sc2c1` [Compound I-285, 4-cyclopentyl-2-[(1R,4R,5S)-5-{[5-cyclopropyl-3-(2,6-dichlorophenyl)-1,2-oxazol-4-yl]methoxy}-2-azabicyclo[2.2.1]heptan-2-yl]-1,3-benzothiazole-6-carboxylic Acid], for which, in experiment [1], the negative logarithm of the EC50 (pEC50) turned out to be 8.9 and the Emax was 116%. Moreover, in experiment [2], the Emax was 100% and the midpoint of the response, the EC50, lay at 0.00251 µM.

Take `COc1cc(Cl)c(-c2noc(C3CC3)c2CO[C@@H]2C[C@@H]3C[C@H]2CN3c2nc3c(F)cc(C(=O)O)cc3s2)c(Cl)c1` [Compound I-286, 2-[(1S,4S,5R)-5-{[5-cyclopropyl-3-(2,6-dichloro-4-methoxyphenyl)-1,2-oxazol-4-yl]methoxy}-2-azabicyclo[2.2.1]heptan-2-yl]-4-fluoro-1,3-benzothiazole-6-carboxylic Acid]: in experiment [1], the pEC50 is listed as 8.7 and the Emax is 130%. Moreover, in experiment [2], the Emax is 108% and the half-maximal effective concentration (EC50) is 0.0398 µM.

Consider `O=C(O)c1cc(F)c2nc(N3C[C@@H]4C[C@H]3C[C@H]4OCc3c(-c4c(Cl)cc(O)cc4Cl)noc3C3CC3)sc2c1` [Compound I-287, 2-[(1S,4S,5R)-5-{[5-cyclopropyl-3-(2,6-dichloro-4-hydroxyphenyl)-1,2-oxazol-4-yl]methoxy}-2-azabicyclo[2.2.1]heptan-2-yl]-4-fluoro-1,3-benzothiazole-6-carboxylic Acid], for which, in experiment [1], the pEC50 is given as 9.2 and the Emax was 134%. Besides, in experiment [2], the Emax worked out at 113% and it took 0.0631 µM to reach a half-maximal effect (EC50).

As to `COc1ccccc1-c1noc(C2CC2)c1CO[C@@H]1C[C@@H]2C[C@H]1CN2c1nc2c(F)cc(C(=O)O)cc2s1` [Compound I-288, 2-((1S,4S,5R)-5-((5-cyclopropyl-3-(2-methoxyphenyl)isoxazol-4-yl)methoxy)-2-azabicyclo[2.2.1]heptan-2-yl)-4-fluorobenzo[d]thiazole-6-carboxylic acid], in experiment [1], the pEC50 is 8 and the Emax is 188%. In experiment [2], the Emax is 112% and the EC50 was 0.00398 µM.

For `COc1cccc(-c2noc(C3CC3)c2CO[C@@H]2C[C@@H]3C[C@H]2CN3c2nc3c(F)cc(C(=O)O)cc3s2)c1` [Compound I-289, 2-((1S,4S,5R)-5-((5-cyclopropyl-3-(3-methoxyphenyl)isoxazol-4-yl)methoxy)-2-azabicyclo[2.2.1]heptan-2-yl)-4-fluorobenzo[d]thiazole-6-carboxylic acid], in experiment [1], the pEC50 is reported as 6.9 and the Emax stood at 70%. In experiment [2], this compound gave a half-maximal effective concentration (EC50) of under 0.0316 µM.

`COc1ccc(-c2noc(C3CC3)c2CO[C@@H]2C[C@@H]3C[C@H]2CN3c2nc3c(F)cc(C(=O)O)cc3s2)cc1` [Compound I-290, 2-((1S,4S,5R)-5-((5-cyclopropyl-3-(4-methoxyphenyl)isoxazol-4-yl)methoxy)-2-azabicyclo[2.2.1]heptan-2-yl)-4-fluorobenzo[d]thiazole-6-carboxylic acid] registered a pEC50 in experiment [1] of over 4.5. In experiment [2], the EC50 is under 0.0316 µM.
